{"source": "patent US20110163045A1", "about": "“METHOD AND SYSTEM FOR TREATING CONTAMINATED WATER” (Ramot at Tel-Aviv University Ltd., priority 2008, published 2011)", "data": [{"assay": "Direct UV photolytic degradation of single contaminants in deionized water (collimated beam MP Hg lamp, HPLC/MS/MS)", "assay_type": "physicochemical", "settings": "deionized water, FIG. 21 and FIG. 23, in words", "experimental": "(§1) Solutions of tested contaminants were prepared by dissolving one or more contaminant in 150 ml deionized water (DI) at a concentration of 1 mg/l for each contaminant. The solution was then placed into an open 90×50 mm crystallization dish. […] No. 7830-61, from Ace Glass Inc.) housed in a bench scale collimated beam apparatus. […] 0.5 ml samples were removed from the irradiated solution at selected time intervals in order to measure the concentration of the remaining contaminant. Samples were measured in a 1100-Finnigan LCQ HPLC/MS/MS (high performance liquid chromatography/tandem mass spectrometry) apparatus (Agilent), in order to obtain a chromatogram for the sample. The concentration was expressed as the area of the peak observed in the HPLC/MS/MS chromatogram. The degradation kinetics were expressed as a logarithm of the ratio of the concentration (CH) remaining following a dose H of irradiation to initial concentration (C0). Such a logarithm decreased in a linear manner as a function of the dose, as follows: […] The data were fitted using a linear regression approach (with R^2>0.9) resulting in pseudo-first order reaction kinetics which reflect the difference in photodegradation between samples.", "values": [{"smiles": "CN(C)[C@@H]1C(O)=C(C(N)=O)C(=O)[C@@]2(O)C(O)=C3C(=O)c4c(O)cccc4[C@@](C)(O)[C@H]3C[C@@H]12", "note": "[TC, Tetracycline]", "pH dependence of rate constant (k) for photolytic degradation": "higher at a relatively high pH (pH 7 or 8)"}, {"smiles": "CC1(C)S[C@@H]2[C@H](NC(=O)[C@H](N)c3ccc(O)cc3)C(=O)N2[C@H]1C(=O)O", "note": "[AMX, Amoxicillin]", "pH dependence of rate constant (k) for photolytic degradation": "higher at a relatively high pH (pH 7 or 8)"}, {"smiles": "CCn1cc(C(=O)O)c(=O)c2cc(F)c(N3CCNCC3)cc21", "note": "[NOR, norfloxacin]", "pH dependence of rate constant (k) for photolytic degradation": "higher at a relatively high pH (pH 7 or 8)"}]}, {"assay": "Direct UV photolytic degradation of single contaminants in deionized water (collimated beam MP Hg lamp, HPLC/MS/MS)", "assay_type": "physicochemical", "settings": "deionized water, in words", "experimental": "as §1", "values": [{"smiles": "CCN1CCN(c2cc3c(cc2F)c(=O)c(C(=O)O)cn3C2CC2)CC1", "note": "[ENR, enrofloxacin]", "pH dependence of photolytic degradation": "more rapid at a pH of 7 than at a pH of 5"}, {"smiles": "NC(=O)N1c2ccccc2C=Cc2ccccc21", "note": "[CPZ, Carbamazepine]", "pH dependence of photolytic degradation": "more rapid at a pH of 8 than at a pH of 6"}, {"smiles": "CN(C)[C@@H]1C(O)=C(C(N)=O)C(=O)[C@@]2(O)C(O)=C3C(=O)c4c(O)cccc4[C@@](C)(O)[C@H]3C[C@@H]12", "note": "[TC, Tetracycline]", "pH dependence of photolytic degradation": "more rapid at a pH of 7 than at a pH of 5"}, {"smiles": "CC1(C)S[C@@H]2[C@H](NC(=O)[C@H](N)c3ccc(O)cc3)C(=O)N2[C@H]1C(=O)O", "note": "[AMX, Amoxicillin]", "pH dependence of photolytic degradation": "more rapid at a pH of 7 or 8 than at a pH of 6"}, {"smiles": "CCn1cc(C(=O)O)c(=O)c2cc(F)c(N3CCNCC3)cc21", "note": "[NOR, norfloxacin]", "pH dependence of photolytic degradation": "more rapid at a pH of 7 than at a pH of 5"}, {"smiles": "CC1(C)S[C@@H]2[C@H](NC(=O)[C@H](N)c3ccccc3)C(=O)N2[C@H]1C(=O)O", "note": "[AMP, ampicillin]", "pH dependence of photolytic degradation": "more rapid at a pH of 8 than at a pH of 7 or 6"}]}, {"assay": "Direct UV photolytic degradation of single contaminants in deionized water (collimated beam MP Hg lamp, HPLC/MS/MS)", "assay_type": "physicochemical", "settings": "least favorable tested pH vs optimal pH, deionized water", "experimental": "as §1", "units": {"Reduction in UV dose": "%"}, "values": [{"smiles": "CCN1CCN(c2cc3c(cc2F)c(=O)c(C(=O)O)cn3C2CC2)CC1", "note": "[ENR, enrofloxacin]", "Reduction in UV dose": 68.2}, {"smiles": "NC(=O)N1c2ccccc2C=Cc2ccccc21", "note": "[CPZ, Carbamazepine]", "Reduction in UV dose": 66.6}, {"smiles": "CC1(C)S[C@@H]2[C@H](NC(=O)[C@H](N)c3ccc(O)cc3)C(=O)N2[C@H]1C(=O)O", "note": "[AMX, Amoxicillin]", "Reduction in UV dose": 36.4}, {"smiles": "CCn1cc(C(=O)O)c(=O)c2cc(F)c(N3CCNCC3)cc21", "note": "[NOR, norfloxacin]", "Reduction in UV dose": 84.7}, {"smiles": "CC1(C)S[C@@H]2[C@H](NC(=O)[C@H](N)c3ccccc3)C(=O)N2[C@H]1C(=O)O", "note": "[AMP, ampicillin]", "Reduction in UV dose": 33.4}]}, {"assay": "Direct UV photolytic degradation of single contaminants in deionized water (collimated beam MP Hg lamp, HPLC/MS/MS)", "assay_type": "physicochemical", "settings": "pH 5, deionized water, polychromatic UV 200-400 nm, 1 mg/l", "experimental": "as §1", "units": {"UV dose for 90% degradation": "mJ/cm^2"}, "values": [{"smiles": "CCN1CCN(c2cc3c(cc2F)c(=O)c(C(=O)O)cn3C2CC2)CC1", "note": "[ENR, enrofloxacin]", "UV dose for 90% degradation": 3286}, {"smiles": "CN(C)[C@@H]1C(O)=C(C(N)=O)C(=O)[C@@]2(O)C(O)=C3C(=O)c4c(O)cccc4[C@@](C)(O)[C@H]3C[C@@H]12", "note": "[TC, Tetracycline]", "UV dose for 90% degradation": 8000}, {"smiles": "CCn1cc(C(=O)O)c(=O)c2cc(F)c(N3CCNCC3)cc21", "note": "[NOR, norfloxacin]", "UV dose for 90% degradation": 4600}]}, {"assay": "Direct UV photolytic degradation of single contaminants in deionized water (collimated beam MP Hg lamp, HPLC/MS/MS)", "assay_type": "physicochemical", "settings": "pH 6, deionized water, polychromatic UV 200-400 nm, 1 mg/l", "experimental": "as §1", "units": {"UV dose for 90% degradation": "mJ/cm^2"}, "values": [{"smiles": "CCN1CCN(c2cc3c(cc2F)c(=O)c(C(=O)O)cn3C2CC2)CC1", "note": "[ENR, enrofloxacin]", "UV dose for 90% degradation": 2300}, {"smiles": "NC(=O)N1c2ccccc2C=Cc2ccccc21", "note": "[CPZ, Carbamazepine]", "UV dose for 90% degradation": 23000}, {"smiles": "CN(C)[C@@H]1C(O)=C(C(N)=O)C(=O)[C@@]2(O)C(O)=C3C(=O)c4c(O)cccc4[C@@](C)(O)[C@H]3C[C@@H]12", "note": "[TC, Tetracycline]", "UV dose for 90% degradation": 2300}, {"smiles": "CC1(C)S[C@@H]2[C@H](NC(=O)[C@H](N)c3ccc(O)cc3)C(=O)N2[C@H]1C(=O)O", "note": "[AMX, Amoxicillin]", "UV dose for 90% degradation": 3285}, {"smiles": "CCn1cc(C(=O)O)c(=O)c2cc(F)c(N3CCNCC3)cc21", "note": "[NOR, norfloxacin]", "UV dose for 90% degradation": 2091}, {"smiles": "CC1(C)S[C@@H]2[C@H](NC(=O)[C@H](N)c3ccccc3)C(=O)N2[C@H]1C(=O)O", "note": "[AMP, ampicillin]", "UV dose for 90% degradation": 2875}]}, {"assay": "Direct UV photolytic degradation of single contaminants in deionized water (collimated beam MP Hg lamp, HPLC/MS/MS)", "assay_type": "physicochemical", "settings": "pH 7, deionized water, polychromatic UV 200-400 nm, 1 mg/l", "experimental": "as §1", "units": {"UV dose for 90% degradation": "mJ/cm^2"}, "values": [{"smiles": "CCN1CCN(c2cc3c(cc2F)c(=O)c(C(=O)O)cn3C2CC2)CC1", "note": "[ENR, enrofloxacin]", "UV dose for 90% degradation": 1045}, {"smiles": "NC(=O)N1c2ccccc2C=Cc2ccccc21", "note": "[CPZ, Carbamazepine]", "UV dose for 90% degradation": 11500}, {"smiles": "CN(C)[C@@H]1C(O)=C(C(N)=O)C(=O)[C@@]2(O)C(O)=C3C(=O)c4c(O)cccc4[C@@](C)(O)[C@H]3C[C@@H]12", "note": "[TC, Tetracycline]", "UV dose for 90% degradation": 1200}, {"smiles": "CC1(C)S[C@@H]2[C@H](NC(=O)[C@H](N)c3ccc(O)cc3)C(=O)N2[C@H]1C(=O)O", "note": "[AMX, Amoxicillin]", "UV dose for 90% degradation": 2090}, {"smiles": "CCn1cc(C(=O)O)c(=O)c2cc(F)c(N3CCNCC3)cc21", "note": "[NOR, norfloxacin]", "UV dose for 90% degradation": 697}, {"smiles": "CC1(C)S[C@@H]2[C@H](NC(=O)[C@H](N)c3ccccc3)C(=O)N2[C@H]1C(=O)O", "note": "[AMP, ampicillin]", "UV dose for 90% degradation": 2875}]}, {"assay": "Direct UV photolytic degradation of single contaminants in deionized water (collimated beam MP Hg lamp, HPLC/MS/MS)", "assay_type": "physicochemical", "settings": "pH 8, deionized water, polychromatic UV 200-400 nm, 1 mg/l", "experimental": "as §1", "units": {"UV dose for 90% degradation": "mJ/cm2"}, "values": [{"smiles": "NC(=O)N1c2ccccc2C=Cc2ccccc21", "note": "[CPZ, Carbamazepine]", "UV dose for 90% degradation": 7667}, {"smiles": "CC1(C)S[C@@H]2[C@H](NC(=O)[C@H](N)c3ccc(O)cc3)C(=O)N2[C@H]1C(=O)O", "note": "[AMX, Amoxicillin]", "UV dose for 90% degradation": 2090}, {"smiles": "CC1(C)S[C@@H]2[C@H](NC(=O)[C@H](N)c3ccccc3)C(=O)N2[C@H]1C(=O)O", "note": "[AMP, ampicillin]", "UV dose for 90% degradation": 1916}]}, {"assay": "not given", "settings": "UV fluence of 1000 mJ/cm^2, pH 7.5, 254 nm; cited from earlier work", "values": [{"smiles": "CCc1cccc(C)c1N(C(=O)CCl)C(C)COC", "note": "(stereo not shown) [metolachlor]", "Fraction degraded": "Approximately half"}]}, {"assay": "not given", "settings": "cited from earlier work", "values": [{"smiles": "Cc1ncc([N+](=O)[O-])n1CCO", "note": "[metronidazole]", "Relevant pKa": 2.4}, {"smiles": "CCN1CCN(c2cc3c(cc2F)c(=O)c(C(=O)O)cn3C2CC2)CC1", "note": "[ENR, enrofloxacin]", "Relevant pKa": 5.94}, {"smiles": "NC(=O)N1c2ccccc2C=Cc2ccccc21", "note": "[CPZ, Carbamazepine]", "Relevant pKa": 13}, {"smiles": "CC1(C)S[C@@H]2[C@H](NC(=O)[C@H](N)c3ccc(O)cc3)C(=O)N2[C@H]1C(=O)O", "note": "[AMX, Amoxicillin]", "Relevant pKa": 6.9}, {"smiles": "CCn1cc(C(=O)O)c(=O)c2cc(F)c(N3CCNCC3)cc21", "note": "[NOR, norfloxacin]", "Relevant pKa": 8.4}]}, {"assay": "not given", "settings": "pH 3-9.5; cited from earlier work", "values": [{"smiles": "Cc1ncc([N+](=O)[O-])n1CCO", "note": "[metronidazole]", "Dependency of direct UV photolysis on solution pH": "no significant dependency"}]}, {"assay": "not given", "settings": "pH 6; cited from earlier work", "values": [{"smiles": "Cc1ncc([N+](=O)[O-])n1CCO", "note": "[metronidazole]", "Removal efficiency of direct photolysis": "low removal efficiency"}]}]}
